Data as given in ChEMBL document CHEMBL1914392, “Comparative studies on interactions of baicalein, baicalin and scutellarin with lysozyme” (2011).
Converted amounts (≈) assume the structure as drawn. The source made the active and inactive calls. The rule behind the calls is not given here.

Tests used:
Gallus gallus [1] = species on record: Gallus gallus; assay: Binding affinity to hen egg white lysozyme assessed as Stem-Volmer dynamic quenching constant at 310 K by Stern-Volmer plot analysis
Gallus gallus [2] = species on record: Gallus gallus; assay: Binding affinity to hen egg white lysozyme assessed as quenching rate constant at 298 K by Stern-Volmer plot analysis
Gallus gallus [3] = species on record: Gallus gallus; assay: Binding affinity to hen egg white lysozyme assessed as effective quenching constant at 298 K by Lineweaver-Burk plot analysis
Gallus gallus [4] = species on record: Gallus gallus; assay: Binding affinity to hen egg white lysozyme assessed as Stem-Volmer dynamic quenching constant at 298 K by Stern-Volmer plot analysis
Gallus gallus [5] = species on record: Gallus gallus; assay: Binding affinity to hen egg white lysozyme assessed as quenching rate constant at 310 K by Stern-Volmer plot analysis
Gallus gallus [6] = species on record: Gallus gallus; assay: Binding affinity to hen egg white lysozyme assessed as effective quenching constant at 310 K by Lineweaver-Burk plot analysis
Gallus gallus [7] = species on record: Gallus gallus; assay: Binding affinity to hen egg white lysozyme assessed as reduction in fluorescence intensity at 1 to 7 x 10^-6 M at 298 K
Staphylococcus aureus [8] = assay: Antibacterial activity against Staphylococcus aureus in presence of 25 mg/L lysozyme; type: functional
Gallus gallus [9] = species on record: Gallus gallus; assay: Binding affinity to hen egg white lysozyme at 310 K
Staphylococcus aureus [10] = assay: Antibacterial activity against Staphylococcus aureus; type: functional
Gallus gallus [11] = species on record: Gallus gallus; assay: Binding affinity to hen egg white lysozyme assessed as reduction in fluorescence intensity at 1 to 7 x 10^-6 M at 310 K
Gallus gallus [12] = species on record: Gallus gallus; assay: Binding affinity to hen egg white lysozyme at 298 K
Gallus gallus [13] = species on record: Gallus gallus; assay: Binding affinity to hen egg white lysozyme in presence of 2 x10'-3 M

SMILES | KSV (Gallus gallus [1]) | Kq (Gallus gallus [2]) [×10¹³ L/mol/s] | Kq (Gallus gallus [3]) [×10⁵ L/mol] | KSV (Gallus gallus [4]) [×10⁵ L/mol] | Kq (Gallus gallus [5]) | Kq (Gallus gallus [6]) | Activity (Gallus gallus [7]) | MIC50 (Staphylococcus aureus [8]) [mg/L] | K (Gallus gallus [9]) [×10⁵ L/mol] | MIC50 (Staphylococcus aureus [10]) [mg/L] | Activity (Gallus gallus [11]) | K (Gallus gallus [12]) | K (Gallus gallus [13])
CC(C)(CO)[C@@H](O)C(=O)NCCC(=O)O | 8.05 ×10⁴ L/mol | 1.02 | 1.28 | 1.04 | 8.03 ×10¹² L/mol/s | 5.27 ×10⁴ L/mol |  |  |  |  |  |  | 
O=c1cc(-c2ccccc2)oc2cc(O)c(O)c(O)c12 [BAICALEIN] | 1.75 ×10⁵ L/mol | 2.02 | 1.77 | 2.02 | 1.75 ×10¹³ L/mol/s | 1.68 ×10⁵ L/mol | Active | 350 | 2.14 | 550 (≈ 2040 µM) | Active | 3.39 ×10⁵ L/mol | 1.5 ×10⁸ Lmol
O=C(O)[C@H]1O[C@@H](Oc2cc3oc(-c4ccccc4)cc(=O)c3c(O)c2O)[C@H](O)[C@@H](O)[C@@H]1O [BAICALIN] | 1.14 ×10⁵ L/mol | 1.25 | 1.74 | 1.25 | 1.14 ×10¹³ L/mol/s | 1.16 ×10⁵ L/mol | Active | 350 | 1.02 | 450 (≈ 1010 µM) | Active | 2.95 ×10⁴ L/mol | 1.17 ×10⁶ Lmol
O=C(O)[C@H]1O[C@@H](Oc2cc3oc(-c4ccc(O)cc4)cc(=O)c3c(O)c2O)[C@H](O)[C@@H](O)[C@@H]1O [SCUTELLARIN] | 1.55 ×10⁵ L/mol | 1.63 | 1.25 | 1.63 | 1.55 ×10¹³ L/mol/s | 1.15 ×10⁵ L/mol | Active | 500 | 3.98 | 650 (≈ 1410 µM) | Active | 7.76 ×10⁵ L/mol | 2.24 ×10⁶ Lmol
